The results in this text go back to PubChem BioAssay AID330 (DTP/NCI, 2004).

The structures appear in SMILES notation. Where “and” joins values, the source holds several entries; their conditions need not be identical. Identical values can stand only once. Toxic doses and inconclusive results are not listed.

This experiment has as its system P388 leukemia ip, CD2F1 mice, survival T/C. The experiment is described as follows: NCI In Vivo Anticancer Drug Screen. Data for tumor model P388 Leukemia (intraperitoneal) in CD2F1 (CDF1) mice. The following applies: higher = longer survival. A digest of the protocol: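 Mice carrying the transplanted tumor received test compound or vehicle. Survival was recorded in each group, and the value is the treated-group measurement divided by that of the vehicle-treated control group.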

Setting [1] is: endpoint: median survival time, dose: 50.0 mg/kg/injection, schedule: Q01DX009 (ip), vehicle: Klucel (hydroxypropylcellulose) (HPC).
The mark [2] stands for this setting: endpoint: median survival time, dose: 100.0 mg/kg/injection, schedule: Q01DX009 (ip), vehicle: Klucel (hydroxypropylcellulose) (HPC).
[3] abbreviates: endpoint: median survival time, dose: 200.0 mg/kg/injection, schedule: Q01DX009 (ip), vehicle: Klucel (hydroxypropylcellulose) (HPC).
[4] abbreviates: endpoint: median survival time, dose: 60.0 mg/kg/injection, schedule: Q01DX005 (ip), vehicle: saline with Tween-80.
The mark [5] stands for this setting: endpoint: median survival time, dose: 120.0 mg/kg/injection, schedule: Q01DX005 (ip), vehicle: saline with Tween-80.
Where [6] appears, read: endpoint: median survival time, dose: 12.5 mg/kg/injection, schedule: Q01DX005 (ip), vehicle: Klucel (hydroxypropylcellulose) (HPC).
[7] abbreviates: endpoint: median survival time, dose: 25.0 mg/kg/injection, schedule: Q01DX005 (ip), vehicle: Klucel (hydroxypropylcellulose) (HPC).
The mark [8] stands for this setting: endpoint: median survival time, dose: 50.0 mg/kg/injection, schedule: Q01DX005 (ip), vehicle: Klucel (hydroxypropylcellulose) (HPC).
Setting [9] is: endpoint: median survival time, dose: 100.0 mg/kg/injection, schedule: Q01DX005 (ip), vehicle: Klucel (hydroxypropylcellulose) (HPC).
Where [10] appears, read: endpoint: median survival time, dose: 240.0 mg/kg/injection, schedule: Q01DX005 (ip), vehicle: saline with Tween-80.

As for `CC1=CC(=Nc2ccc(N(CCCl)CCCl)cc2)C=C(C)C1=O`, the T/C runs as follows: (endpoint: median survival time, dose: 3.12 mg/kg/injection, schedule: Q01DX009 (ip), vehicle: Klucel (hydroxypropylcellulose) (HPC)) 105 % of control; (endpoint: median survival time, dose: 12.5 mg/kg/injection, schedule: Q01DX009 (ip), vehicle: Klucel (hydroxypropylcellulose) (HPC)) 186 % of control; (endpoint: median survival time, dose: 12.5 mg/kg/injection, schedule: Q01DX009 (ip), vehicle: other) 153 % of control; (endpoint: median survival time, dose: 12.5 mg/kg/injection, schedule: Q01DX009 (ip), vehicle: saline) 104 % of control and 118 % of control; (endpoint: median survival time, dose: 25.0 mg/kg/injection, schedule: Q01DX009 (ip), vehicle: Klucel (hydroxypropylcellulose) (HPC)) 173 % of control and 186 % of control; (endpoint: median survival time, dose: 25.0 mg/kg/injection, schedule: Q01DX009 (ip), vehicle: other) 235 % of control. The T/C runs as follows: (endpoint: median survival time, dose: 25.0 mg/kg/injection, schedule: Q01DX009 (ip), vehicle: saline) 114 % of control; under setting [1], 170 % of control and 186 % of control; (endpoint: median survival time, dose: 50.0 mg/kg/injection, schedule: Q01DX009 (ip), vehicle: other) 91 % of control; (endpoint: median survival time, dose: 50.0 mg/kg/injection, schedule: Q01DX009 (ip), vehicle: saline) 157 % of control; (endpoint: median survival time, dose: 100.0 mg/kg/injection, schedule: Q01DX009 (ip), vehicle: saline) 166 % of control.
On to `CCCCNC(=O)C(c1ccccc1)c1ccccc1`, for which the T/C by setting is: under setting [1], 99 % of control; under setting [2], 106 % of control; under setting [3], 100 % of control.
For `CC1=C(Sc2ccc(Br)cc2)C(N)Nc2nc(N)nc(N)c21` (stereo not given), the T/C under setting [4] is 89 % of control and the T/C under setting [5] is 89 % of control.
`Cc1cccc(C2N=C3Oc4ccccc4C=C3C(=O)N2)c1` (stereo not given): the T/C is 96 % of control (endpoint: median survival time, dose: 6.25 mg/kg/injection, schedule: Q01DX005 (ip), vehicle: Klucel (hydroxypropylcellulose) (HPC)); 95 % of control under setting [6]; 96 % of control under setting [7]; 99 % of control under setting [8]; 105 % of control under setting [9].
Consider `Cn1c(-c2ccccc2)c(COC(=O)NC2CCCCC2)c(COC(=O)NC2CCCCC2)c1-c1ccc(Cl)cc1`, for which the T/C was 109 % of control (endpoint: median survival time, dose: 3.13 mg/kg/injection, schedule: Q01DX009 (ip), vehicle: distilled water + Tween-80); 105 % of control (endpoint: median survival time, dose: 6.25 mg/kg/injection, schedule: Q01DX009 (ip), vehicle: distilled water + Tween-80); 178 % of control (endpoint: median survival time, dose: 50.0 mg/kg/injection, schedule: Q01DX009 (ip), vehicle: distilled water + Tween-80); 175 % of control (endpoint: median survival time, dose: 75.0 mg/kg/injection, schedule: Q01DX009 (ip), vehicle: distilled water + Tween-80).
Regarding `O=S(=O)(Nc1ccn(-c2ccccc2)n1)c1ccc(NCc2c3ccccc3nc3cc(Cl)ccc23)cc1`, the T/C is, setting by setting: under setting [4], 99 % of control; under setting [5], 91 % of control; under setting [10], 93 % of control.
On to `CCC(=O)Nc1n[nH]c(NC(=O)CC)n1`, for which the T/C is 103 % of control under setting [8]; 100 % of control under setting [9]; 100 % of control (endpoint: median survival time, dose: 200.0 mg/kg/injection, schedule: Q01DX005 (ip), vehicle: Klucel (hydroxypropylcellulose) (HPC)).
Turning to `CN(C(=O)NCCCl)C1=NC(O)(c2ccccc2)C(c2ccccc2)=N1` (stereo not given), the T/C reads like this: (endpoint: median survival time, dose: 100.0 mg/kg/injection, schedule: Q04DX002 (ip), vehicle: saline with Tween-80) 106 % of control; (endpoint: median survival time, dose: 200.0 mg/kg/injection, schedule: Q04DX002 (ip), vehicle: saline with Tween-80) 113 % of control; (endpoint: median survival time, dose: 400.0 mg/kg/injection, schedule: Q04DX002 (ip), vehicle: saline with Tween-80) 112 % of control.
In the case of `O=C(Nc1ccccc1)OCC(Cl)(Cl)Cl`, the T/C was 100 % of control (endpoint: median survival time, dose: 100.0 mg/kg/injection, schedule: Q01DX009 (ip), vehicle: saline with Tween-80); 100 % of control (endpoint: median survival time, dose: 200.0 mg/kg/injection, schedule: Q01DX009 (ip), vehicle: saline with Tween-80); 119 % of control (endpoint: median survival time, dose: 400.0 mg/kg/injection, schedule: Q01DX009 (ip), vehicle: saline with Tween-80).
For the compound `CCOC(=O)C1=C(C)/C(=C/c2[n-]c(C)c(C(=O)OCC)c2C)N=C1C.CCOC(=O)C1=C(C)/C(=C/c2[n-]c(C)c(C(=O)OCC)c2C)N=C1C.[Co+2]`, the T/C by setting is: (endpoint: mean survival time, dose: 12.5 mg/kg/injection, schedule: Q01DX001 (ip), vehicle: saline with Tween-80) 95 % of control; (endpoint: mean survival time, dose: 25.0 mg/kg/injection, schedule: Q01DX001 (ip), vehicle: saline with Tween-80) 92 % of control; (endpoint: mean survival time, dose: 50.0 mg/kg/injection, schedule: Q01DX001 (ip), vehicle: saline with Tween-80) 90 % of control.
As to `Cc1c([N+](=O)[O-])oc2cc3c(cc12)CCCC3`, the T/C reads like this: under setting [4], 91 % of control; under setting [5], 93 % of control; under setting [10], 94 % of control.
In the case of `CN1CC(O)C2=CC(=O)C(=O)C(I)=C21` (stereo not given), the T/C runs as follows: (endpoint: median survival time, dose: 30.0 mg/kg/injection, schedule: Q01DX005 (ip), vehicle: saline + Tween-80 + alcohol) 108 % of control; under setting [8], 109 % of control; (endpoint: median survival time, dose: 60.0 mg/kg/injection, schedule: Q01DX005 (ip), vehicle: saline + Tween-80 + alcohol) 101 % of control; (endpoint: median survival time, dose: 240.0 mg/kg/injection, schedule: Q01DX005 (ip), vehicle: saline + Tween-80 + alcohol) 114 % of control.
Turning to `NC(CCSCc1ccc(N(CCCl)CCCl)cc1)C(=O)O` (stereo not given), the T/C is 154 % of control (endpoint: median survival time, dose: 3.13 mg/kg/injection, schedule: Q04DX003 (ip), vehicle: saline with Tween-80); 118 % of control (endpoint: median survival time, dose: 6.25 mg/kg/injection, schedule: Q01DX009 (ip), vehicle: saline with Tween-80); 163 % of control (endpoint: median survival time, dose: 6.25 mg/kg/injection, schedule: Q04DX003 (ip), vehicle: saline with Tween-80); 122 % of control (endpoint: median survival time, dose: 12.5 mg/kg/injection, schedule: Q01DX009 (ip), vehicle: saline with Tween-80); 190 % of control (endpoint: median survival time, dose: 12.5 mg/kg/injection, schedule: Q04DX003 (ip), vehicle: saline with Tween-80); 163 % of control and 227 % of control (endpoint: median survival time, dose: 25.0 mg/kg/injection, schedule: Q01DX009 (ip), vehicle: saline with Tween-80). For the same compound, the T/C reads like this: (endpoint: median survival time, dose: 25.0 mg/kg/injection, schedule: Q04DX003 (ip), vehicle: saline with Tween-80) 181 % of control; (endpoint: median survival time, dose: 50.0 mg/kg/injection, schedule: Q01DX009 (ip), vehicle: saline with Tween-80) 95 % of control; (endpoint: median survival time, dose: 50.0 mg/kg/injection, schedule: Q04DX003 (ip), vehicle: saline with Tween-80) 263 % of control; (endpoint: median survival time, dose: 100.0 mg/kg/injection, schedule: Q04DX003 (ip), vehicle: saline with Tween-80) 222 % of control and 231 % of control.
As to `CC1(/C=C/c2ccccc2)NC(=O)NC1=O` (stereo not given), the T/C under setting [1] was 88 % of control, the T/C under setting [2] is 98 % of control and the T/C under setting [3] was 104 % of control.
In the case of `CON=C1C(C)(C)C(=NOC)C1(C)C`, the T/C is 90 % of control under setting [6], 86 % of control under setting [7] and 99 % of control under setting [8].
Turning to `COc1cc(C(CC(C)=O)c2cc3c(cc2OC(C)=O)OCO3)cc(OC)c1OC` (stereo not given), the T/C by setting is: (endpoint: median survival time, dose: 30.0 mg/kg/injection, schedule: Q01DX005 (ip), vehicle: saline with Tween-80) 95 % of control; under setting [4], 100 % of control and 93 % of control; under setting [5], 120 % of control.
Turning to `Cc1ccc(OP(=O)(Oc2ccc(C)cc2)Oc2ccc(C)cc2)cc1.Cc1ccc(OP(=O)(Oc2ccc(C)cc2)Oc2ccc(C)cc2)cc1.Cc1ccc(OP(=O)(Oc2ccc(C)cc2)Oc2ccc(C)cc2)cc1.Cc1ccc(OP(=O)(Oc2ccc(C)cc2)Oc2ccc(C)cc2)cc1.[Co+2].[O-][Cl+3]([O-])([O-])O`, the T/C was 99 % of control (endpoint: median survival time, dose: 100.0 mg/kg/injection, schedule: Q01DX001 (ip), vehicle: Klucel (hydroxypropylcellulose) (HPC)); 97 % of control (endpoint: median survival time, dose: 200.0 mg/kg/injection, schedule: Q01DX001 (ip), vehicle: Klucel (hydroxypropylcellulose) (HPC)); 97 % of control (endpoint: median survival time, dose: 400.0 mg/kg/injection, schedule: Q01DX001 (ip), vehicle: Klucel (hydroxypropylcellulose) (HPC)).
On to `COC(=O)CCn1nc(-c2ccccc2)c(-c2ccccc2)c(S(C)(=O)=O)c1=O`, for which the T/C reads like this: (endpoint: median survival time, dose: 25.0 mg/kg/injection, schedule: Q04DX002 (ip), vehicle: distilled water + Tween-80) 95 % of control; (endpoint: median survival time, dose: 50.0 mg/kg/injection, schedule: Q04DX002 (ip), vehicle: distilled water + Tween-80) 92 % of control; (endpoint: median survival time, dose: 200.0 mg/kg/injection, schedule: Q04DX002 (ip), vehicle: distilled water + Tween-80) 90 % of control.
Regarding `Cc1cc(=O)oc2cc3occc(=O)c3cc12`, the T/C was 98 % of control under setting [4], 95 % of control under setting [5] and 92 % of control under setting [10].
